“Also recorded” adds a separate entry of the source.
Key:
CYP 2D6 = CYP 2D6 (Homo sapiens, UniProt P10635); experiment: CYP inhibition 2D6; assay type: in vitro ADME; parameters: unit not given here; conditions: Conc. 30 uM
CYP 2B6 = target: T1, CYP 2B6 (Homo sapiens, UniProt P20813); experiment: CYP inhibition 2B6; assay type: in vitro ADME; parameters: unit not given here; conditions: Conc. 30 uM
T1 sequence (P20813 1-491): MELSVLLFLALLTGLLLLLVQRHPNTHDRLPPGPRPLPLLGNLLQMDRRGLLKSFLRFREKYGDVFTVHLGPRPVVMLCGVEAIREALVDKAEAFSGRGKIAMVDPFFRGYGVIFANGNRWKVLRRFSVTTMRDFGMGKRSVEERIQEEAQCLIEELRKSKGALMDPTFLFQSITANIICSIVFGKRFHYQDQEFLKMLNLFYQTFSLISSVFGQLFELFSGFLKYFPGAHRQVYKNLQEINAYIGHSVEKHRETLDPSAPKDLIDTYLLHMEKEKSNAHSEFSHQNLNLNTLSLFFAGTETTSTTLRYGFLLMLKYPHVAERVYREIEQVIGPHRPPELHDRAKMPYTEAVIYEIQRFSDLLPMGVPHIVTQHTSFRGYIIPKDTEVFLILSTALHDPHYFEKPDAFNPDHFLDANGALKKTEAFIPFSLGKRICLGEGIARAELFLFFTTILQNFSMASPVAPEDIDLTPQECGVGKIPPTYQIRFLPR

MCF7 = experiment: Cell viability, CTG, MCF7; assay type: cell-based; conditions: Homo sapiens, MCF7 (Breast)
Method: To measure cell viability, cell titer glow (CTG, Promega CellTiter-Glo 2.0 Assay) and MTT assays (SigmaAldrich, Cell Proliferation Kit I) were performed. Briefly, cells were serum starved overnight prior to seeding in 96-well plates. Following 24 h incubation, cells were treated with increasing concentrations of JGJ compounds for 96 hr. At assay read-out, CellTiter-Glo reagent was added and luminescence was measured after 10-minutes incubation at room temperature. For the MTT assay, MTT labeling reagent was added and incubated for 4 h. Subsequently, medium was removed and 50 μL DMSO was added to solubilize the crystals, and absorbance was measured at 570 nm. Cell viability was calculated as (Sample-Background)/(Control-Background). Current standard of care drugs, Enzalutamide, Palbociclib and Cetuximab were used as comparative controls.

CYP 1A2 = target: T2, CYP 1A2 (Homo sapiens, UniProt P05177); experiment: CYP inhibition 1A2; assay type: in vitro ADME; parameters: unit not given here; conditions: Conc. 30 uM
T2 sequence (P05177 1-516): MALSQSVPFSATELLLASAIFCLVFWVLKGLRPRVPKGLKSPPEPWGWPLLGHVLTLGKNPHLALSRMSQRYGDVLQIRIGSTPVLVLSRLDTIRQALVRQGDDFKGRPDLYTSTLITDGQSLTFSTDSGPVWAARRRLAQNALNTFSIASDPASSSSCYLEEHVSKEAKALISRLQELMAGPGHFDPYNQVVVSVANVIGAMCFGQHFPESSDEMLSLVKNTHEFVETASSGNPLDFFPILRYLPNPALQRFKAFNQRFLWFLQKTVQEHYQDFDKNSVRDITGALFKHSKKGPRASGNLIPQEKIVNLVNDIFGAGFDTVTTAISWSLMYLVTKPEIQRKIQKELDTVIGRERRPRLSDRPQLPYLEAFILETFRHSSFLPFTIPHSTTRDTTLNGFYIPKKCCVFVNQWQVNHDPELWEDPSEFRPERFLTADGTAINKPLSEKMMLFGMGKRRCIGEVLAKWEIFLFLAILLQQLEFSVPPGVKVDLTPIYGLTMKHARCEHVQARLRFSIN

[1] = Microsomal stability, Human; assay type: in vitro ADME; conditions: Conc. 30 uM; for CLint scaled at 30 uM / half-life at 30 uM: microsomes; for half-life at 30 uM: read-out: Microsomal stability T½
[2] = tested on: THP-1 cells (high LIN28B); experiment: Subcutaneous THP-1 AML xenograft; assay type: in vivo, NSG / NSGS mice; conditions: for Tumor growth: 100 mg/kg
Method: Subsequently, the tumor suppressive effect of LN1632 in cancer in vivo was assessed. High LIN28B expressing THP-1 AML cells (2×10^6 cells) were implanted in NSGS mice (cell suspension in matrigel, 3:1) and at d+12 or d+8 (tumor size=50 mm^2) injection of LN1632 IP at 100 mg/kg daily was initiated. […] The effect of LN1632 in a systemic Kasumi-1 xenograft was also assessed. […] The effects of LN1632 to cytarabine chemotherapy (Ara-C) was also compared, as previously described (74). THP-1 AML cells were subcutaneously implanted (1.5×10^6 cells, high LIN28B) in NSGS mice. Daily IP injections with 100 mg/kg LN1632, 60 mg/kg cytarabine chemotherapy (Ara-C), or vehicle was started at +d3 post AML cell implantation and continued until the vehicle group reached maximal allowed tumor size (250 mm^2).

MOLM-13 (no LIN28B) = experiment: Subcutaneous MOLM-13 AML xenograft; assay type: in vivo; conditions: MOLM-13 subQ in NSG mice, 100 mg/kg IP every other day
Method: Thus, we subcutaneously (subQ) implanted THP-1 (high LIN28B) cells or MOLM-13 (no LIN28B) into NSG mice and 12 d later (tumor size=40 mm^2) started administration of 1632 IP at 100 mg/kg every other day.

Sequence of CYP 2D6 (P10635 whole entry): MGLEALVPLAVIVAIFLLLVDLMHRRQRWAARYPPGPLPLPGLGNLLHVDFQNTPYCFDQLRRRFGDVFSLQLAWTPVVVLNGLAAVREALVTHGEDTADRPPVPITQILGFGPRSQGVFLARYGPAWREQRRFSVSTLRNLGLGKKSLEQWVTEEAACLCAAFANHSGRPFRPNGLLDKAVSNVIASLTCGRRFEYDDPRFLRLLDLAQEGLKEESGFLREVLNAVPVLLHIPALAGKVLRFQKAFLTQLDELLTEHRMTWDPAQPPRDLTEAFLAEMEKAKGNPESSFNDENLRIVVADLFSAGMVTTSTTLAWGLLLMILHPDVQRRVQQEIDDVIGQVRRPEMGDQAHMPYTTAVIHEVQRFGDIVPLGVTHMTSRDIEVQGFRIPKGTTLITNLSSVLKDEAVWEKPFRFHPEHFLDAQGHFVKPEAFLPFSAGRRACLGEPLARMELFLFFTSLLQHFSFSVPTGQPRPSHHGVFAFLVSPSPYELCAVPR

| CYP inhibition 2D6 (CYP 2D6) | CYP inhibition 2B6 (CYP 2B6) | IC50 (MCF7) [µM] | CYP inhibition 1A2 (CYP 1A2) | Microsomal stability % Remaining at T30 [1] | CLint scaled at 30 uM [1] [mL/min/kg] | half-life at 30 uM [1] [min] | SMILES | Tumor growth ([2]; THP-1 subQ in NSG mice, 100 mg/kg IP every other day) | Tumor growth ([2]; THP-1 subQ in NSGS mice, 100 mg/kg IP daily) | AML tumor proliferation, LN1632 vs Ara-C ([2]; THP-1 subQ in NSGS mice, daily IP 100 mg/kg LN1632 or 60 mg/kg Ara-C from +d3) | Tumor growth (MOLM-13 (no LIN28B)) |
| --- | --- | --- | --- | --- | --- | --- | --- | --- | --- | --- | --- |
| 54.08 | 45.39 | 115 | 97.3 | T30 = 72.8% | 19 | 65.6 | CC(=O)Nc1cccc(-c2ccc3ncc(C)n3n2)c1 [JGJ007, N-(3-(3-Methylimidazo[1,2-b]pyridazin-6-yl)phenyl)acetamide] | – | – | – | – |
| 19.38 | 67.27 | – | 96.4 | T30 = 6.9% | 161 | 7.76 | Cc1cnc2ccc(-c3cccc(F)c3)nn12 [JGJ015, 6-(3-Fluorophenyl)-3-methylimidazo[1,2-b]pyridazine] | – | – | – | – |
| – | – | – | – | – | – | – | CC(=O)N(C)c1cccc(-c2ccc3nnc(C)n3n2)c1 [LN1632] | significantly slowed tumor growth; also recorded: significantly reduced tumor growth | significantly reduced tumor growth 19 days post injection; also recorded: significantly slowed tumor growth | increased inhibition of AML tumor proliferation compared to Ara-C or vehicle treated mice; also recorded: inhibited proliferation | minimal effect on tumor growth; also recorded: significantly reduced tumor growth in THP-1 but not MOLM-13 |
